Data as given in patent publication US8097759B2, “Inflammatory cytokine release inhibitor” (Institute of Medicinal Molecular Design, Inc., priority 2000, dated 2012).

Tested on: NF-κB activation
Assay: NF-κB activation reporter assay (pNFκB-Luc luciferase) under TNF-α stimulation
Format: cell-based, human
Conditions: HepG2 or HeLa cells, TNF-α 40 ng/ml, 4 hours; for inhibition at 1 µg/mL / inhibition at 10 µg/mL: Homo sapiens, read-out: The rate of inhibitory activity against NF-κB activation (%)
Protocol: Using a transfection reagent (Effectene; QIAGEN), the human hepatoma cell strain HepG2 or the human hysterocarcinoma cell strain HeLa was transfected with the firefly luciferase gene (Luc) contained plasmid (pNF κB-Luc Reporter Plasmid; […]) which contained oligonucleotide having five tandem copies of NF-κB binding sequences ([…]) on a upstream region of Luc, according to the QUAGEN's protocol and it was incuvated for 6-24 hours. After addition of TNF-α (40 ng/ml) with or without the test compound, the cells were incuvated for 4 hours, and intracellular luciferase activity was measured with PicaGene LT (TOYO INK MFG Co., Ltd.) and chemical luminescence measurement device ([…]luor Plus; TECAN). The inhibition ratio was measured as a ratio to the value of the luciferase activity without the test compound.

[1] = Concentration of the agent: 1 μg/mL
[2] = Concentration of the agent: 10 μg/mL

Row | The rate of inhibitory activity against NF-κB activation (%) [1] [%] | The rate of inhibitory activity against NF-κB activation (%) [2] [%] | Structure (SMILES) | inhibition at 1 µg/mL [1] [%] | inhibition at 10 µg/mL [2] [%]
1 | – | – | O=C(Nc1cccc2ccccc12)c1cc(Cl)ccc1O [Compound 32, 5-Chloro-2-hydroxy-N-(1-naphthyl)benzamide] | 89.3 | 96.3
2 | – | – | COc1cc(NC(=O)c2cc(Cl)ccc2O)cc2ccccc12 [Compound 33, 5-Chloro-2-hydroxy-N-(4-methoxynaphthalen-2-yl)benzamide] | 95.1 | 99.5
3 | – | – | COc1cc(NC(=O)c2cc(Cl)ccc2OC(C)=O)cc2ccccc12 [Compound 34, 2-Acetoxy-5-Chloro-N-(4-methoxynaphthalen-2-yl)benzamide] | 90.5 | 98.5
4 | – | – | CCOC(=O)c1c(NC(=O)c2cc(Cl)ccc2O)sc2c1CCCC2 [Compound 35, 2-(5-Chloro-2-hydroxybenzoyl)amino-4,5,6,7-tetrahydrobenzo[b]-thiophene-3-carboxylic acid ethyl ester] | 88.2 | 85.4
5 | – | – | O=C(Nc1cc(-c2ccccc2)[nH]n1)c1cc(Br)ccc1O [Compound 36, 5-Bromo-2-hydroxy-N-(5-phenylpyrazol-3-yl)benzamide] | 26.6 | 84.7
6 | – | – | O=C(Nc1nc(-c2ccccc2)c(-c2ccccc2)o1)c1cc(Br)ccc1O [Compound 38, 5-Bromo-N-(4,5-diphenyloxazol-2-yl)-2-hydroxybenzamide] | -10.1 | 81.8
7 | 3.9 | 81.9 | O=C(Nc1nnc(C(F)(F)F)s1)c1ccccc1O [Compound 40, 2-Hydroxy-N-5-[(trifluoromethyl)-1,3,4-thiadiazol-2-yl]benzamide] | – | –
8 | 26.1 | 90.3 | O=C(Nc1nnc(C(F)(F)F)s1)c1cc(Br)ccc1O [Compound 41] | – | –
9 | – | – | O=C(Nc1ccnc(Cl)c1)c1cc(Cl)ccc1O [Compound 42, 5-Chloro-N-(2-chloropyridin-4-yl)-2-hydroxybenzamide] | 14.3 | 92.3
10 | – | – | COc1cc(Cl)nc(NC(=O)c2cc(Cl)ccc2O)n1 [Compound 43, 5-Chloro-N-(6-chloro-4-methoxypyrimidin-2-yl)-2-hydroxybenzamide] | 25.5 | 78.9
11 | 36.7 | 65.8 | CC(=O)Oc1ccc(Cl)cc1C(=O)Nc1cc2ccccc2[nH]1 [Compound 44, 2-Aceoxy-5-chloro-N-(indol-2-yl)benzamide] | – | –
12 | – | – | CCOC(=O)c1c[nH]c2c(NC(=O)c3ccccc3OC(C)=O)cccc12 [Compound 45, 7-[(2-Acetoxybenzoyl)amino]indole-3-carboxylic acid ethyl ester] | 61.7 | 91.3
13 | – | – | O=C(Nc1cnc2ccccc2c1)c1cc(Cl)ccc1O [Compound 46, 5-Chloro-2-hydroxy-N-(quinolin-3-yl)benzamide] | -43.7 | 85.7
14 | – | – | CCn1c2ccccc2c2cc(NC(=O)c3cc(Cl)ccc3O)ccc21 [Compound 47, N-(9-Ethylcarbazol-3-yl)-5-chloro-2-hydroxybenzamide] | 91.3 | 99.4
15 | – | – | O=C(Nc1cc(C(F)(F)F)cc(C(F)(F)F)c1)c1ccccc1O [Compound 48] | 93.3 | 95.6
16 | – | – | O=C(Nc1cc(C(F)(F)F)cc(C(F)(F)F)c1)c1cc(F)ccc1O [Compound 49] | 81.5 | 94.3
17 | – | – | O=C(Nc1cc(C(F)(F)F)cc(C(F)(F)F)c1)c1cc(Cl)ccc1O [Compound 50] | 96.3 | 99.5
18 | – | – | O=C(Nc1cc(C(F)(F)F)cc(C(F)(F)F)c1)c1cc(Br)ccc1O [Compound 51] | 94.9 | 98.6
19 | – | – | O=C(Nc1cc(C(F)(F)F)cc(C(F)(F)F)c1)c1cc([N+](=O)[O-])ccc1O [Compound 53] | 92 | 99.2
20 | – | – | Cc1ccc(O)c(C(=O)Nc2cc(C(F)(F)F)cc(C(F)(F)F)c2)c1 [Compound 55] | 95.8 | 99.4
21 | – | – | CC(O)c1ccc(O)c(C(=O)Nc2cc(C(F)(F)F)cc(C(F)(F)F)c2)c1 (stereo not drawn) [Compound 57] | 76.8 | 96
22 | – | – | O=C(Nc1cc(C(F)(F)F)cc(C(F)(F)F)c1)c1cc(C=Cc2ccccc2)ccc1O [Compound 63] | 95.5 | 96.9
23 | – | – | C#Cc1ccc(O)c(C(=O)Nc2cc(C(F)(F)F)cc(C(F)(F)F)c2)c1 [Compound 64] | 53.3 | 90.1
24 | – | – | C[Si](C)(C)C#Cc1ccc(O)c(C(=O)Nc2cc(C(F)(F)F)cc(C(F)(F)F)c2)c1 [Compound 66] | 91.1 | 94.9
25 | – | – | O=C(Nc1cc(C(F)(F)F)cc(C(F)(F)F)c1)c1cc(-c2ccccc2)ccc1O [Compound 67] | 91.8 | 96.8

Row | The rate of inhibitory activity against NF-κB activation (%) [1] [%] | The rate of inhibitory activity against NF-κB activation (%) [2] [%] | Structure (SMILES) | inhibition at 1 µg/mL [1] [%] | inhibition at 10 µg/mL [2] [%]
26 | – | – | O=C(Nc1cc(C(F)(F)F)cc(C(F)(F)F)c1)c1cc(C(F)(F)F)ccc1O [Compound 69] | 96.4 | 99.6
27 | – | – | O=C(Nc1cc(C(F)(F)F)cc(C(F)(F)F)c1)c1cc(C(F)(F)C(F)(F)F)ccc1O [Compound 70] | 93.3 | 95.4
28 | – | – | O=C(Nc1cc(C(F)(F)F)cc(C(F)(F)F)c1)c1cc(-n2cccc2)ccc1O [Compound 71] | 93.8 | 97.9
29 | – | – | O=C(Nc1cc(C(F)(F)F)cc(C(F)(F)F)c1)c1cc(-c2cccs2)ccc1O [Compound 72] | 79.5 | 97.8
30 | – | – | O=C(Nc1cc(C(F)(F)F)cc(C(F)(F)F)c1)c1cc(-c2ccsc2)ccc1O [Compound 73] | 81.7 | 92.9
31 | – | – | COc1ccc(O)c(C(=O)Nc2cc(C(F)(F)F)cc(C(F)(F)F)c2)c1 [Compound 77] | 30.7 | 97
32 | – | – | O=C(Nc1cc(C(F)(F)F)cc(C(F)(F)F)c1)c1ccc(O)c(C(=O)Nc2cc(C(F)(F)F)cc(C(F)(F)F)c2)c1 [Compound 82] | -8.7 | 94.5
33 | – | – | O=C(Nc1ccc(O)c(C(=O)Nc2cc(C(F)(F)F)cc(C(F)(F)F)c2)c1)c1ccccc1 [Compound 90] | 1 | 63.4
34 | – | – | O=C(Nc1ccccc1)Nc1ccc(O)c(C(=O)Nc2cc(C(F)(F)F)cc(C(F)(F)F)c2)c1 [Compound 91] | 20.5 | 88.4
35 | – | – | O=C(Nc1cc(C(F)(F)F)cc(C(F)(F)F)c1)c1cc(NC(=S)Nc2ccccc2)ccc1O [Compound 92] | 51.8 | 97.2
36 | – | – | O=C(Nc1cc(C(F)(F)F)cc(C(F)(F)F)c1)c1cc(N=Nc2ccc([N+](=O)[O-])cc2)ccc1O [Compound 93] | 96.2 | 98.7
37 | – | – | CC(=O)Oc1ccc(Cl)cc1C(=O)Nc1cc(C(F)(F)F)cc(C(F)(F)F)c1 [Compound 96] | 96.5 | 99.2
38 | – | – | CC(=O)Nc1cc(O)c(C(=O)Nc2cc(C(F)(F)F)cc(C(F)(F)F)c2)cc1Cl [Compound 97] | 69.9 | 96
39 | – | – | O=C(Nc1cc(C(F)(F)F)cc(C(F)(F)F)c1)c1ccc(Cl)cc1O [Compound 98] | 90.5 | 98.2
40 | – | – | O=C(Nc1cc(C(F)(F)F)ccc1C(F)(F)F)c1cc(Br)ccc1O [Compound 101] | 95.7 | 98.3
41 | – | – | O=C(Nc1ccccc1C(F)(F)F)c1cc(Cl)ccc1O [Compound 104] | 76.2 | 96.9
42 | – | – | O=C(Nc1cccc(C(F)(F)F)c1)c1cc(Br)ccc1O [Compound 106] | 80.7 | 93.3
43 | – | – | O=C(Nc1cccc(C(F)(F)F)c1F)c1cc(Cl)ccc1O [Compound 107] | 92.3 | 95
44 | – | – | O=C(Nc1ccc(F)c(C(F)(F)F)c1)c1cc(Cl)ccc1O [Compound 108] | 94.7 | 97.6
45 | – | – | O=C(Nc1ccc(Cl)c(C(F)(F)F)c1)c1cc(Br)ccc1O [Compound 109] | 83 | 88.8
46 | – | – | O=C(Nc1cc(F)cc(C(F)(F)F)c1)c1cc(Cl)ccc1O [Compound 110] | 94.7 | 98.9
47 | – | – | O=C(Nc1cc(C(F)(F)F)ccc1F)c1cc(Cl)ccc1O [Compound 112] | 93.1 | 95.9
48 | – | – | O=C(Nc1cc(C(F)(F)F)ccc1Cl)c1cc(Cl)ccc1O [Compound 113] | 94.8 | 97.1
49 | – | – | O=C(Nc1cc(C(F)(F)F)ccc1Cl)c1cc(Br)ccc1O [Compound 114] | 88.9 | 94.1
50 | – | – | O=C(Nc1ccc([N+](=O)[O-])c(C(F)(F)F)c1)c1cc(Cl)ccc1O [Compound 115] | 89 | 94.3

Row | Structure (SMILES) | The rate of inhibitory activity against NF-κB activation (%) [1] [%] | The rate of inhibitory activity against NF-κB activation (%) [2] [%] | inhibition at 1 µg/mL [1] [%] | inhibition at 10 µg/mL [2] [%]
51 | CC(=O)Oc1ccccc1C(=O)Nc1cc(C(F)(F)F)cc(C(F)(F)F)c1 [Compound 95, 2-Acetoxy-[3,5-bis(trifluoromethyl)phenyl]benzamide] | 90.9 | 97.1 | – | –
